Where two headings read alike, the source gives them in different places.

One data set relates to potato stem segments. Put plainly: Carbohydrate sources, potato stem segments, 9 weeks. The format is cell-based. To be noted: 5 g/l, 9 weeks; for activity at 5000 µg/mL: Solanum tuberosum. An excerpt: Similar results are observed with potato stem segments after 9 weeks of culturing.
Data set [1] concerns leaf discs of tobacco without (GUS-) introduced β-glucuronidase genes. The format is cell-based, Nicotiana tabacum 'Wisconsin 38'. Conditions: test compounds at several concentrations up to 250 μM in MSO.
Data set [2] has as its system leaf discs of tobacco with (GUS+) introduced β-glucuronidase genes. The format is cell-based, Nicotiana tabacum 'Wisconsin 38'. To be noted: test compounds at several concentrations up to 250 μM in MSO.
A further data set has as its system Wild type explants. The data set is described as follows: Shoot regeneration on mannose, sucrose and methyl-3-O-glucose, wild type. It is filed as cell-based. To be noted: Wild type.
The subject of data set [3] is plant material transgenic for the mannose 6-phosphate isomerase gene. The data set is described as follows: Effect of methyl-3-O-glucose on selection of transgenic shoots on mannose. The format is cell-based. Conditions: mannose 15 g/l, no sucrose. An excerpt: The transformed plant material is transgenic for the mannose 6-phosphate isomerase gene. After 21 days the selected shoots are harvested.

The subject of another data set is explants. Put plainly: Inhibition of the toxicity of mannose by methyl-3-O-glucose. The format is cell-based. An excerpt:
Example 25 is repeated except that the selection/regeneration substrate is supplemented with methyl 3-0-glucose (MOG) at the concentrations indicated in Table 25. The percentage of live explants is registered after 8 weeks.

Data set [4] has as its system explants transgenic for the mannose 6-phosphate isomerase gene. Put plainly: Shoot regeneration on mannose, sucrose and methyl-3-O-glucose, Man-6-P-isomerase. Conditions: Man-6-P-isomerase. It is filed as cell-based.
The test system of data set [5] is plant material transgenic for the mannose 6-phosphate isomerase gene. The data set is described as follows: Selection on mannose together with phloridzin. It is filed as cell-based. To be noted: 0.5 g/l phloridzin. An excerpt: The transformed plant material is transgenic for the mannose 6-phosphate isomerase gene. After 21 days the selected shoots are harvested. […] Example 29 is repeated except that MOG is substituted by phloridzin. […] This is an example of how cross feeding and the production of escapers can be minimized by the addition of a carbohydrate transport inhibitor.

[6] abbreviates: MOG 2.5, mannose 0 g/l, sucrose 10 g/l.
The mark [7] stands for this setting: MOG 2.5, mannose 5 g/l, sucrose 0 g/l.
Setting [8] is: MOG 2.5, mannose 5 g/l, sucrose 10 g/l.
[9] abbreviates: MOG 2.5, mannose 10 g/l, sucrose 0 g/l.
[10] abbreviates: MOG 2.5, mannose 10 g/l, sucrose 10 g/l.
The mark [11] stands for this setting: MOG 2.5, mannose 20 g/l, sucrose 0 g/l.
Setting [12] is: MOG 2.5, mannose 20 g/l, sucrose 10 g/l.
[13] abbreviates: MOG 5.0, mannose 0 g/l, sucrose 0 g/l.
Setting [14] is: MOG 5.0, mannose 0 g/l, sucrose 10 g/l.
Where [15] appears, read: MOG 5.0, mannose 5 g/l, sucrose 0 g/l.
Where [16] appears, read: MOG 5.0, mannose 5 g/l, sucrose 10 g/l.
Where [17] appears, read: MOG 5.0, mannose 10 g/l, sucrose 0 g/l.
Setting [18] is: MOG 5.0, mannose 10 g/l, sucrose 10 g/l.
Where [19] appears, read: MOG 5.0, mannose 20 g/l, sucrose 0 g/l.
The mark [20] stands for this setting: MOG 5.0, mannose 20 g/l, sucrose 10 g/l.
[21] abbreviates: mannose 5.0 g/l, first '+ Sucrose' column.
Setting [22] is: mannose 5.0 g/l, second '+ Sucrose' column.
Where [23] appears, read: mannose 7.5 g/l, first '+ Sucrose' column.
The mark [24] stands for this setting: mannose 7.5 g/l, second '+ Sucrose' column.
The mark [25] stands for this setting: mannose 10.0 g/l, first '+ Sucrose' column.
Where [26] appears, read: mannose 10.0 g/l, second '+ Sucrose' column.
Where [27] appears, read: mannose 12.5 g/l, first '+ Sucrose' column.
Where [28] appears, read: mannose 15.0 g/l, first '+ Sucrose' column.

`O=C(CO)[C@@H](O)[C@H](O)CO` [D-xylulose]: the “# of Shoots per explant” value in the data set with potato stem segments was determined as 2.2. In addition, the activity at 5000 µg/mL turned out to be 74% in the data set on potato stem segments (read-out: Size % of control) and 58% with potato stem segments (read-out: explants alive % of control).
Turning to `O=C(O)[C@H]1OC(O)[C@H](O)[C@@H](O)[C@@H]1O` (some centres unmarked) [Glucuronic acid], the “Shoot formation, GUS-” value in data set [1] is recorded as “- ("-" means no shoot formation at concentrations below 250 μM)”. For the same compound, the “Shoot formation, GUS+” value in data set [2] is given as “- ("-" means no shoot formation at concentrations below 250 μM)”.
For `CO[C@H]1[C@H](O)[C@@H](CO)OC(O)[C@@H]1O` (some centres unmarked) [MOG, methyl 3-0-glucose], the “regenerated shoots as a percentage of shoots on substrates without mannose and methyl-3-0-glucose” value in the data set with Wild type explants (MOG 2.5, mannose 0 g/l, sucrose 0 g/l, 11 weeks) worked out at 0; in the data set on Wild type explants (setting [6]), 53; in the data set with Wild type explants (setting [7]), 0; in the data set with Wild type explants (setting [8]), 6; in the data set with Wild type explants (setting [9]), 0; with Wild type explants (setting [10]), 0. Besides, the “regenerated shoots as a percentage of shoots on substrates without mannose and methyl-3-0-glucose” value with Wild type explants (setting [11]) is listed as 0; with Wild type explants (setting [12]), 0; in the data set with Wild type explants (setting [13]) it was 0; with Wild type explants (setting [14]), 17; with Wild type explants (setting [15]) it was 0; in the data set with Wild type explants (setting [16]), 41. The “regenerated shoots as a percentage of shoots on substrates without mannose and methyl-3-0-glucose” value in the data set with Wild type explants (setting [17]) amounted to 0; in the data set with Wild type explants (setting [18]) it was 0; with Wild type explants (setting [19]), 0; in the data set on Wild type explants (setting [20]) it was 0; in data set [4] (MOG 2.5, mannose 0 g/l, sucrose 0 g/l), 0; in data set [4] (setting [6]), 0. Besides, the “regenerated shoots as a percentage of shoots on substrates without mannose and methyl-3-0-glucose” value amounted to 7 in data set [4] (setting [7]); 64 in data set [4] (setting [8]); 64 in data set [4] (setting [9]); 86 in data set [4] (setting [10]); 107 in data set [4] (setting [11]); 200 in data set [4] (setting [12]). Besides, the “regenerated shoots as a percentage of shoots on substrates without mannose and methyl-3-0-glucose” value was 0 in data set [4] (setting [13]); 0 in data set [4] (setting [14]); 0 in data set [4] (setting [15]); 64 in data set [4] (setting [16]); 28 in data set [4] (setting [17]); 36 in data set [4] (setting [18]). For the same compound, the “regenerated shoots as a percentage of shoots on substrates without mannose and methyl-3-0-glucose” value in data set [4] (setting [19]) is 128; in data set [4] (setting [20]), 86. In addition, the “GUS+ shoots/explant” value was determined as 0.2 in data set [3] (MOG 2.5 g/l), 1.0 in data set [3] (MOG 5.0 g/l), 0.5 in data set [3] (MOG 10 g/l) and 0.6 in data set [3] (MOG 15 g/l). Also, the “GUS+ shoots/sel. shoots (%)” value in data set [3] (MOG 2.5 g/l) worked out at 57%; in data set [3] (MOG 5.0 g/l), 81%; in data set [3] (MOG 10 g/l), 89%; in data set [3] (MOG 15 g/l), 53%. In addition, the “percentage of live explants” value in the data set with explants (MOG 5 g/l, mannose 0 g/l, sucrose 0 g/l) came out at 13; in the data set with explants (MOG 5 g/l, mannose 0 g/l, sucrose 10 g/l), 100; with explants (MOG 5 g/l, mannose 5 g/l, sucrose 0 g/l), 54; with explants (MOG 5 g/l, mannose 5 g/l, sucrose 10 g/l), 100; with explants (MOG 5 g/l, mannose 10 g/l, sucrose 0 g/l), 0; with explants (MOG 5 g/l, mannose 10 g/l, sucrose 10 g/l) it was 5. Further, the “percentage of live explants” value in the data set with explants (MOG 10 g/l, mannose 0 g/l, sucrose 0 g/l) was found to be 47; in the data set on explants (MOG 10 g/l, mannose 0 g/l, sucrose 10 g/l), 100; with explants (MOG 10 g/l, mannose 5 g/l, sucrose 0 g/l), 82; in the data set with explants (MOG 10 g/l, mannose 5 g/l, sucrose 10 g/l), 100; in the data set on explants (MOG 10 g/l, mannose 10 g/l, sucrose 0 g/l) it was 9; in the data set with explants (MOG 10 g/l, mannose 10 g/l, sucrose 10 g/l), 41. Besides, the “percentage of live explants” value with explants (MOG 20 g/l, mannose 0 g/l, sucrose 0 g/l) is on record as 50; with explants (MOG 20 g/l, mannose 0 g/l, sucrose 10 g/l), 100; in the data set with explants (MOG 20 g/l, mannose 5 g/l, sucrose 0 g/l), 98; with explants (MOG 20 g/l, mannose 5 g/l, sucrose 10 g/l) it was 100; in the data set with explants (MOG 20 g/l, mannose 10 g/l, sucrose 0 g/l), 88; with explants (MOG 20 g/l, mannose 10 g/l, sucrose 10 g/l) it was 100.
`C/C(=C\CNc1ncnc2[nH]cnc12)CO` [Zeatin]: the “Shoot formation, GUS-” value in data set [1] was “+ ("+" means shoot formation at concentrations below 250 μM)”. Moreover, in data set [2], the “Shoot formation, GUS+” value is “+ ("+" means shoot formation at concentrations below 250 μM)”.
Consider `O=C(CCc1ccc(O)cc1)c1c(O)cc(O)cc1O[C@@H]1O[C@H](CO)[C@@H](O)[C@H](O)[C@H]1O` [Phloridzin, phloridzin], for which the “GUS+ Shoots/Expl.” value was 1.2 in data set [5] (setting [21]); 0.08 in data set [5] (setting [22]); 0.5 in data set [5] (setting [23]); 0.5 in data set [5] (setting [24]); 0.5 in data set [5] (setting [25]); 0.5 in data set [5] (setting [26]). Besides, the “GUS+ Shoots/Expl.” value turned out to be 0.03 in data set [5] (setting [27]); 0.0 in data set [5] (mannose 12.5 g/l, second '+ Sucrose' column); 0.03 in data set [5] (setting [28]); 0.0 in data set [5] (mannose 15.0 g/l, second '+ Sucrose' column). Further, the “GUS+ Shoots/Sel. Shoots” value in data set [5] (setting [21]) is 94.0%; in data set [5] (setting [22]), 100.0%; in data set [5] (setting [23]) it was 88.0%; in data set [5] (setting [24]), 78.5%; in data set [5] (setting [25]), 100.0%; in data set [5] (setting [26]), 95%. Besides, the “GUS+ Shoots/Sel. Shoots” value in data set [5] (setting [27]) and in data set [5] (setting [28]) was 100% each time.

Values taken from patent US5994629A, “Positive selection” (priority 1991, dated 1999).
